# Measurements reported in the supplement of paper PMC9663587.
# Columns and labels:
# Experiment in all cases: GRmax, 72 h; higher = less effect;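 note: breast cell lines in 384-well plates, nine doses across a 10^4 range, Dye Drop imaging of viable cells vs DMSO and time-zero plates, GR 0 means no net growth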
# BT549 = system: BT549
# EVSAT = system: EVSAT
# HCC1395 = system: HCC1395
# HCC1569 = system: HCC1569
# HCC38 = system: HCC38
# MDAMB361 = system: MDAMB361
# PDX1258 = system: PDX1258
# PDX1328 = system: PDX1328
# SUM1315 = system: SUM1315
# SUM159 = system: SUM159
# SUM52PE = system: SUM52PE
SMILES,"GRmax, 72 h (BT549)","GRmax, 72 h (EVSAT)","GRmax, 72 h (HCC1395)","GRmax, 72 h (HCC1569)","GRmax, 72 h (HCC38)","GRmax, 72 h (MDAMB361)","GRmax, 72 h (PDX1258)","GRmax, 72 h (PDX1328)","GRmax, 72 h (SUM1315)","GRmax, 72 h (SUM159)","GRmax, 72 h (SUM52PE)","GRmax, 72 h (BT549; main component drawn)","GRmax, 72 h (HCC1395; main component drawn)","GRmax, 72 h (HCC38; main component drawn)","GRmax, 72 h (MDAMB361; main component drawn)","GRmax, 72 h (PDX1258; main component drawn)","GRmax, 72 h (PDX1328; main component drawn)","GRmax, 72 h (SUM1315; main component drawn)","GRmax, 72 h (SUM159; main component drawn)"
NC(=O)Nc1cc(-c2cccc(F)c2)sc1C(=O)N[C@H]1CCCNC1 [AZD7762] (max 10 µM),-0.482 GR,-0.319 GR,-0.69 GR,-0.411 GR,-0.334 GR,-0.675 GR,-0.453 GR,-0.578 GR,-0.653 GR,-0.278 GR,-0.322 GR,–,–,–,–,–,–,–,–
Cc1nc(NC(=O)N2CCC[C@H]2C(N)=O)sc1-c1ccnc(C(C)(C)C(F)(F)F)c1 [Alpelisib/BYL719] (max 10 µM),0.684 GR,0.716 GR,0.637 GR,0.369 GR,0.68 GR,-0.799 GR,0.631 GR,0.203 GR,0.383 GR,0.602 GR,0.0427 GR,–,–,–,–,–,–,–,–
CN(C)C/C=C/C(=O)Nc1ccc(O[C@@H]2CCC[C@@H](Nc3ncc(Cl)c(-c4c[nH]c5ccccc45)n3)C2)cc1 [BSJ-01-175] (max 10 µM),-0.593 GR,-0.512 GR,-0.862 GR,-0.762 GR,-0.564 GR,-0.804 GR,-0.914 GR,-0.254 GR,-0.864 GR,-0.473 GR,-0.673 GR,–,–,–,–,–,–,–,–
CC(=O)c1c(C)c2cnc(Nc3ccc(N4CCN(CCOCCOCCOCCNC(=O)COc5cccc6c5C(=O)N(C5CCC(=O)NC5=O)C6=O)CC4)cn3)nc2n(C2CCCC2)c1=O (stereo unspecified) [BSJ-03-123] (max 10 µM),0.0183 GR,0.0652 GR,-0.171 GR,-0.03 GR,-0.0999 GR,-0.0849 GR,-0.415 GR,0.28 GR,0.236 GR,-0.042 GR,0.227 GR,–,–,–,–,–,–,–,–
CC(C)Nc1cc(-c2c[nH]c(C(=O)N[C@H](CO)c3cccc(Cl)c3)c2)c(Cl)cn1 [BVD523] (max 10 µM),0.545 GR,0.695 GR,0.253 GR,0.568 GR,0.371 GR,0.27 GR,0.163 GR,0.752 GR,0.207 GR,0.156 GR,0.315 GR,–,–,–,–,–,–,–,–
Cc1c(N)nc([C@H](CC(N)=O)NC[C@H](N)C(N)=O)nc1C(=O)N[C@H](C(=O)N[C@H](C)[C@@H](O)[C@H](C)C(=O)N[C@H](C(=O)NCCc1nc(-c2nc(C(=O)NCCC[S+](C)C)cs2)cs1)[C@@H](C)O)[C@@H](OC1OC(CO)C(O)C(O)C1OC1OC(CO)C(O)C(OC(N)=O)C1O)c1cnc[nH]1 (stereo partly specified) [Bleomycin] (max 10 µM),–,–,–,–,–,–,–,–,–,–,–,-0.0141 GR,-0.402 GR,-0.232 GR,-0.266 GR,0.0721 GR,0.306 GR,0.149 GR,-0.21 GR
Nc1cc(C(F)(F)F)c(-c2cc(N3CCOCC3)nc(N3CCOCC3)n2)cn1 [Buparlisib/NVP-BKM120] (max 10 µM),-0.272 GR,-0.499 GR,-0.506 GR,-0.163 GR,-0.276 GR,-0.958 GR,-0.392 GR,-0.351 GR,-0.369 GR,-0.279 GR,-0.183 GR,–,–,–,–,–,–,–,–
COc1cc2nccc(Oc3ccc(NC(=O)C4(C(=O)Nc5ccc(F)cc5)CC4)cc3)c2cc1OC [Cabozantinib] (max 10 µM),0.533 GR,0.654 GR,0.114 GR,0.723 GR,0.301 GR,0.662 GR,0.28 GR,0.251 GR,0.11 GR,0.257 GR,0.0751 GR,–,–,–,–,–,–,–,–
COc1cc2c(Oc3ccc4[nH]c(C)cc4c3F)ncnc2cc1OCCCN1CCCC1 [Cediranib/AZD2171] (max 10 µM),-0.135 GR,0.498 GR,-0.482 GR,0.875 GR,-0.204 GR,-0.98 GR,-0.561 GR,-0.544 GR,-0.228 GR,0.518 GR,0.21 GR,–,–,–,–,–,–,–,–
